What follows are compounds tested on A2780 (assay: Cytotoxicity against human A2780 cells).
Assay type: functional, cell-based

Structure (SMILES) | IC50 [nM]
C/C=C(\C)C(=O)O[C@@H]1[C@@H](OC(C)=O)[C@@H]2O[C@H]3[C@H](O[C@@H](CCC)CCCCC[C@H](OC(C)=O)C(=O)CCC(=O)OC[C@@H](O2)[C@H]1OC(=O)/C=C/c1ccccc1)O[C@H](C)[C@H](OC(C)=O)[C@@H]3OC(C)=O | 19100
C/C=C(\C)C(=O)O[C@@H]1[C@@H](OC(C)=O)[C@@H]2O[C@H]3[C@H](O[C@@H](CCC)CCCCCCC(=O)CCC(=O)OC[C@@H](O2)[C@H]1OC(=O)/C=C/c1ccccc1)O[C@H](C)[C@H](OC(C)=O)[C@@H]3OC(C)=O | 15800
C/C=C(\C)C(=O)O[C@@H]1[C@@H](O)[C@@H]2O[C@H]3[C@H](O[C@@H](CCC)CCCCCCC(=O)CCC(=O)OC[C@@H](O2)[C@H]1OC(=O)/C=C/c1ccccc1)O[C@H](C)[C@H](OC(C)=O)[C@@H]3O [IPOMOEASSIN A] | 500
C/C=C(\C)C(=O)O[C@@H]1[C@@H](O)[C@@H]2O[C@H]3[C@H](O[C@@H](CCC)CCCCCCC(=O)CCC(=O)OC[C@@H](O2)[C@H]1OC(=O)/C=C/c1ccccc1)O[C@H](C)[C@H](O)[C@@H]3O [IPOMOEASSIN B] | 400
C/C=C(\C)C(=O)O[C@@H]1[C@@H](O)[C@@H]2O[C@H]3[C@H](O[C@@H](CCC)CCCCC[C@H](O)C(=O)CCC(=O)OC[C@@H](O2)[C@H]1OC(=O)/C=C/c1ccccc1)O[C@H](C)[C@H](OC(C)=O)[C@@H]3O [IPOMOEASSIN C] | 2900
C/C=C(\C)C(=O)O[C@@H]1[C@@H](O)[C@@H]2O[C@H]3[C@H](O[C@@H](CCC)CCCCC[C@H](OC(C)=O)C(=O)CCC(=O)OC[C@@H](O2)[C@H]1OC(=O)/C=C/c1ccccc1)O[C@H](C)[C@H](OC(C)=O)[C@@H]3O [IPOMOEASSIN D] | 35
C/C=C(\C)C(=O)O[C@@H]1[C@@H](O)[C@@H]2O[C@H]3[C@H](O[C@@H](CCC)CCCCC[C@H](OC(C)=O)C(=O)CCC(=O)OC[C@@H](O2)[C@H]1OC(=O)/C=C/c1ccccc1)O[C@H](C)[C@H](O)[C@@H]3O [IPOMOEASSIN E] | 3300
